The values below come from patent US20070173527A1, “HISTONE DEACETYLASE INHIBITORS” (priority 2006, published 2007).

Structures are written as SMILES.

What is called IC50 is the concentration needed to halve the response being measured. High values mean a need for much substance, low ones inhibition by little substance.

For this test, the target named is HDAC2 (Homo sapiens, UniProt Q92769). In words: HDAC2 fluorescence inhibition assay (tBoc-Lys(Ac)-AMC).
Sequence of HDAC2 (Q92769 whole entry): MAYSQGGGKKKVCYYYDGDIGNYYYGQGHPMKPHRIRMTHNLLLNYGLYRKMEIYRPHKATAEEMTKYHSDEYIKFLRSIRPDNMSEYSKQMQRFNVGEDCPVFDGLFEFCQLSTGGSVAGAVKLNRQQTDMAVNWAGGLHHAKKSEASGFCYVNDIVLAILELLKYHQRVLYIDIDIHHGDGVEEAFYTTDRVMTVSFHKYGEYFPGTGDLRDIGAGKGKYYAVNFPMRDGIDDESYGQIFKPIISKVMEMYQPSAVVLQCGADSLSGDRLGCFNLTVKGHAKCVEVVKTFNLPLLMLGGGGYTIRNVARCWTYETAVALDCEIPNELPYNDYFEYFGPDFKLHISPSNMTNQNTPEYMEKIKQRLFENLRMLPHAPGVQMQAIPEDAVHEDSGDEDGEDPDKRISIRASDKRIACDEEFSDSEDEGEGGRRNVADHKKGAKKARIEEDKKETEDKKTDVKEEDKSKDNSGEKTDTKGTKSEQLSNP
As for `Nc1ccccc1NC(=O)c1ccc(COc2nc3ccncc3[nH]2)cc1` [Example 11, 4-((3H-imidazo[4,5-c]pyridin-2-yloxy)methyl)-N-(2-aminophenyl)benzamide], the IC50 lay within 0.1 to 1 µM.
In turn, `Nc1ccccc1NC(=O)c1ccc(CNc2nc3ccccc3[nH]2)cc1` [Example 2, 4-((1H-benzo[d]imidazol-2-ylamino)methyl)-N-(2-aminophenyl)benzamide] yielded an IC50 of less than 0.1 µM.
As for `Nc1ccccc1NC(=O)c1ccc(C[S+]([O-])c2nc3ccccc3[nH]2)cc1` (centres unmarked) [Example 5, 4-((1H-benzo[d]imidazol-2-ylsulfinyl)methyl)-N-(2-aminophenyl)benzamide], the IC50 fell in the range of 0.1 to 1 µM.
Then `Nc1ccccc1NC(=O)c1ccc(CSc2nc3ccccc3n2C2CCCCC2)cc1` [Example 8, N-(2-aminophenyl)-4-((1-cyclohexyl-1H-benzo[d]imidazol-2-ylthio)methyl)benzamide], with 0.1 to 1 µM.
In the case of `CC(C)n1c(SCc2ccc(C(=O)Nc3ccccc3N)cc2)nc2ccccc21` [Example 7, N-(2-aminophenyl)-4-((1-isopropyl-1H-benzo[d]imidazol-2-ylthio)methyl)benzamide] it was less than 0.1 µM; in that of `Nc1ccccc1NC(=O)c1ccc(COc2nc3cccnc3[nH]2)cc1` [Example 4, 4-((3H-imidazo[4,5-b]pyridin-2-yloxy)methyl)-N-(2-aminophenyl)benzamide], 0.1 to 1 µM; in that of `Nc1ccccc1NC(=O)c1ccc(CS(=O)(=O)c2nc3ccccc3[nH]2)cc1` [Example 6, 4-((1H-benzo[d]imidazol-2-ylsulfonyl)methyl)-N-(2-aminophenyl)benzamide], 0.1 to 1 µM.
Then `Nc1ccccc1NC(=O)c1ccc(COc2nc3cccnc3[nH]2)s1` [Example 12, 5-((3H-imidazo[4,5-b]pyridin-2-yloxy)methyl)-N-(2-aminophenyl)thiophene-2-carboxamide], with greater than 1 µM.
Turning to `Nc1ccccc1NC(=O)c1ccc(CSc2nc3ccncc3[nH]2)cc1` [Example 10, 4-((3H-imidazo[4,5-c]pyridin-2-ylthio)methyl)-N-(2-aminophenyl)benzamide], the IC50 is less than 0.1 µM.
`Nc1ccccc1NC(=O)c1ccc(CSc2nc3ccccc3[nH]2)cc1` [Example 3, 4-((1H-benzo[d]imidazol-2-ylthio)methyl)-N-(2-aminophenyl)benzamide] had an IC50 of 0.1 to 1 µM.
Then `Nc1ccccc1NC(=O)c1ccc(CSc2nc3cccnc3[nH]2)cc1` [Example 9, 4-((3H-imidazo[4,5-b]pyridin-2-ylthio)methyl)-N-(2-aminophenyl)benzamide], with less than 0.1 µM.
